Assay results from ChEMBL document CHEMBL1255197, “Surface plasmon resonance biosensor based fragment screening using acetylcholine binding protein identifies ligand efficiency hot spots (LE hot spots) by deconstruction of nicotinic acetylcholine receptor α7 ligands” (J Med Chem, 2010).

Key:
[1] = biological target: Neuronal acetylcholine receptor subunit alpha-7 (Homo sapiens, UniProt P36544); experiment: biochemical
Description: Displacement of [3H]-MLA from human alpha7 nAChR expressed in human SH-SY5Y cells

[2] = biological target: T1, Acetylcholine-binding protein (Lymnaea stagnalis, UniProt P58154)
Description: Binding affinity to Lymnaea stagnalis His6-AChBP expressed in Bac-to-Bac baculovirus expression system by surface plasmon resonance biosensor assay

[3] = biological target: T1, Acetylcholine-binding protein; remark: listed apart in the source
Description: Displacement of [3H]epibatidine from Lymnaea stagnalis His6-AChBP expressed in Bac-to-Bac baculovirus expression system

T1 sequence (P58154 whole entry): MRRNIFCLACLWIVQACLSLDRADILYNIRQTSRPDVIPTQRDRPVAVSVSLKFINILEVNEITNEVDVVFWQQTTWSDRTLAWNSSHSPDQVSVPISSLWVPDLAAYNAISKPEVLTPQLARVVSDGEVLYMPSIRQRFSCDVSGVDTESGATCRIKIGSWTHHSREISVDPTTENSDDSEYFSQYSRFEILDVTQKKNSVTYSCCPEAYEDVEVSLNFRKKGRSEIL
Neuronal acetylcholine receptor subunit alpha-7, sequence (P36544 whole entry): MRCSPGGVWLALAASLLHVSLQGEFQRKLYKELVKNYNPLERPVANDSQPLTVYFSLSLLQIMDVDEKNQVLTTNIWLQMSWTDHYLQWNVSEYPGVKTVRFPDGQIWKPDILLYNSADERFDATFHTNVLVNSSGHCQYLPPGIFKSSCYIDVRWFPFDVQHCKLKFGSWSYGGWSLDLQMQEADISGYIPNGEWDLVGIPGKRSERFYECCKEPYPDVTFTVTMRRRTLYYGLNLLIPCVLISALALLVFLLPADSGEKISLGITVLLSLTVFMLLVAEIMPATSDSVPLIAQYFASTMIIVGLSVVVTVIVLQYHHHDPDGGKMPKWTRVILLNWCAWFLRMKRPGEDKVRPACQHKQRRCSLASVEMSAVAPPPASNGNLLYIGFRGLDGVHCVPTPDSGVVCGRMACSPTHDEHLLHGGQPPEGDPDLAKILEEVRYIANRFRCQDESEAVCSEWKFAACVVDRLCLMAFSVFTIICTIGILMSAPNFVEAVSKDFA

SMILES	Ki [1] [nM]	Kd [2] [nM]	Ki [3] [nM]
N[C@@H]1C2CCN(CC2)[C@H]1Cc1cccnc1	2290	550	468
O=C(N[C@@H]1C2CCN(CC2)[C@H]1Cc1cccnc1)c1ccccc1	–	219	240
O=C(N[C@@H]1C2CCN(CC2)[C@H]1Cc1cccnc1)Oc1ccccc1	37.2	347	501
O=C(Nc1ccc(Br)cc1)N[C@H]1CN2CCC1CC2	43.7	4900	5130
O[C@@H]1C2CCN(CC2)[C@H]1Cc1cccnc1	3310	316	251
O=C(Nc1ccccc1)O[C@H]1CN2CCC1CC2	–	29500	7940
NCCc1cccnc1	8510	148000	93300
O=C(N[C@H]1CN2CCC1CC2)c1ccc(Cl)cc1 [PNU-282987]	24.5	3630	2090
N[C@H]1CN2CCC1CC2	6310	74100	110000
O=C(Nc1ccccc1)N[C@@H]1C2CCN(CC2)[C@H]1Cc1cccnc1	28.8	871	562
O=C(Nc1ccc(Br)cc1)O[C@H]1CN2CCC1CC2	38.9	4470	3020
O=C(Nc1ccccc1)N[C@H]1CN2CCC1CC2	110	18600	5500
O=C(Nc1ccccc1)O[C@@H]1C2CCN(CC2)[C@H]1Cc1cccnc1	18.6	100	61.7
O=C(N[C@@H]1C2CCN(CC2)[C@H]1Cc1cccnc1)c1cc2ccccc2o1 [BRADANICLINE]	–	20	14.5
O=C(N[C@@H]1C2CCN(CC2)[C@H]1Cc1cccnc1)c1cccs1	43.7	240	148
CN(C)CCc1cccnc1	3160	6030	3160
O=C(Nc1ccc(Br)cc1)OCCCc1cccnc1	6920	50100	> 10000
O=C(Nc1ccccc1)OCCCc1cccnc1	14500	741000	282000
O=C(Nc1ccc(Br)cc1)N[C@@H]1C2CCN(CC2)[C@H]1Cc1cccnc1	25.7	437	708
